{"source": "paper PMC11680386", "about": "(Viruses, 2024)", "key": {"DENV-2 NS2B-NS3 protease": {"biological_target": "DENV-2 NS2B-NS3 protease (Dengue virus type 2, UniProt P29990)", "sequence (P29990 1476-2093)": "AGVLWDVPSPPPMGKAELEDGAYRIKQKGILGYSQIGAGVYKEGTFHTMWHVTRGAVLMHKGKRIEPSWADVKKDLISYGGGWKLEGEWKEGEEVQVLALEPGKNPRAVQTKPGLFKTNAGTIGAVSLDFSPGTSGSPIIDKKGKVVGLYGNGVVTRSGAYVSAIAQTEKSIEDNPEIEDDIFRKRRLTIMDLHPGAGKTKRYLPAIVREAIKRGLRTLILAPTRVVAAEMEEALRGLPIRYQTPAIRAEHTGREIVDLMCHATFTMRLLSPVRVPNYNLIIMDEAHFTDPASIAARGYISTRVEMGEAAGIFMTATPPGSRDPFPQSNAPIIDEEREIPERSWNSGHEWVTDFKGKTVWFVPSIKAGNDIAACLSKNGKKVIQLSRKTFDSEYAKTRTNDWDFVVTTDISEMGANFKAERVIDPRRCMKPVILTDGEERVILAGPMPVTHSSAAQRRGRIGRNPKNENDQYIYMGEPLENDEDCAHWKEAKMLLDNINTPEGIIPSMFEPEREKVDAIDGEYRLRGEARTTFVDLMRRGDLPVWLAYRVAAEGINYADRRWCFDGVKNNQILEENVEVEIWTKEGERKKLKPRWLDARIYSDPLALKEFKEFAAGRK", "sequence (P29990 1346-1475)": "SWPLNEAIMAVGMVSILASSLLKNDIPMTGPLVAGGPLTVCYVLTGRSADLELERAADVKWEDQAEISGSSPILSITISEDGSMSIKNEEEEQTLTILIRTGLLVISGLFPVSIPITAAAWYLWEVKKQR", "assay": "Trans-cleavage FRET assay with DENV-2 NS2B-NS3 protease", "type": "cell-based", "conditions": "for inhibition at 10 µM: read-out: Reduction of DENV-2 NS2B-NS3 protease activity"}, "DENV-2": {"tested_on": "DENV-2", "assay": "Time-of-addition/removal assay with DENV-2", "type": "cell-based", "conditions": "Dengue virus, DENV2; compound applied 2 h after infection, 18 h incubation; read-out: EC50 for viral infectivity, post-entry treatment"}, "DENV-2 strain 16681 [1]": {"tested_on": "DENV-2 strain 16681", "assay": "Virus yield assay (TCID50)", "type": "cell-based", "conditions": "Dengue virus, DENV2, 96 h post-treatment"}, "DENV-2 strain 16681 [2]": {"tested_on": "DENV-2 strain 16681", "assay": "In vitro infectivity assay (NS4B immunofluorescence/DAPI) in Vero E6 cells", "type": "cell-based", "conditions": "for Selectivity Index (CC50/EC50): CC50 Vero E6 / EC50 infectivity; for EC50: Dengue virus, DENV2, Vero C1008, 96 h, read-out: Inhibition of DENV-2 Infectivity (EC50, μM)"}, "MTT cytotoxicity assay": {"assay": "MTT cytotoxicity assay", "type": "cell-based, African green monkeys", "conditions": "African green monkey, Vero E6 cells"}, "[3]": {"conditions": "trans-cleavage FRET assay, cells expressing CFP-trrg-YFP transfected with DENV-2 NS2B-NS3"}}}
{"smiles": "CCOC(=O)C(CC(C)C)NC(=O)C1OC(OC2C(OC3CCC4(C)C(CCC5(C)C4C(=O)C=C4C6CC(C)(C(=O)O)CCC6(C)CCC45C)C3(C)C)OC(C(=O)NC(CC(C)C)C(=O)OCC)C(O)C2O)C(O)C(O)C1O", "note": "(stereo not shown) [Compound 16]", "values": [{"measurement": "inhibition at 10 µM", "setting": "DENV-2 NS2B-NS3 protease", "result": "> 20", "unit": "%"}, {"measurement": "IC50", "setting": "DENV-2 NS2B-NS3 protease; [3]", "result": "> 10000", "unit": "nM"}]}
{"smiles": "COC(=O)CCCCCCNC(=O)C1OC(OC2C(OC3CCC4(C)C(CCC5(C)C4C(=O)C=C4C6CC(C)(C(=O)O)CCC6(C)CCC45C)C3(C)C)OC(C(=O)NCCCCCCC(=O)OC)C(O)C2O)C(O)C(O)C1O", "note": "(stereo not shown) [Compound 19]", "values": [{"measurement": "EC50", "setting": "DENV-2", "result": 1910, "unit": "nM"}, {"measurement": "EC50", "setting": "DENV-2 strain 16681 [1]", "result": 430, "unit": "nM"}, {"measurement": "Selectivity Index (CC50/EC50)", "setting": "DENV-2 strain 16681 [2]", "result": ">42"}, {"measurement": "EC50", "setting": "DENV-2 strain 16681 [2]", "result": "2.34 ± 0.08", "unit": "µM"}, {"measurement": "CC50 at 96 h", "setting": "MTT cytotoxicity assay", "result": "> 100000", "unit": "nM"}, {"measurement": "inhibition at 10 µM", "setting": "DENV-2 NS2B-NS3 protease", "result": "> 20", "unit": "%"}]}
{"smiles": "COC(=O)C(CCC(=O)O)NC(=O)C1OC(OC2C(OC3CCC4(C)C(CCC5(C)C4C(=O)C=C4C6CC(C)(C(=O)O)CCC6(C)CCC45C)C3(C)C)OC(C(=O)NC(CCC(=O)O)C(=O)OC)C(O)C2O)C(O)C(O)C1O", "note": "(stereo not shown) [Compound 12]", "values": [{"measurement": "inhibition at 10 µM", "setting": "DENV-2 NS2B-NS3 protease", "result": "> 20", "unit": "%"}]}
{"smiles": "COC(=O)CCCCCCCCCCNC(=O)C1OC(OC2C(OC3CCC4(C)C(CCC5(C)C4C(=O)C=C4C6CC(C)(C(=O)O)CCC6(C)CCC45C)C3(C)C)OC(C(=O)NCCCCCCCCCCC(=O)OC)C(O)C2O)C(O)C(O)C1O", "note": "(stereo not shown) [Compound 20]", "values": [{"measurement": "inhibition at 10 µM", "setting": "DENV-2 NS2B-NS3 protease", "result": "> 20", "unit": "%"}, {"measurement": "IC50", "setting": "DENV-2 NS2B-NS3 protease; [3]", "result": "> 10000", "unit": "nM"}]}
{"smiles": "CC1(C)[C@@H](O[C@H]2O[C@H](C(=O)O)[C@@H](O)[C@H](O)[C@H]2O[C@@H]2O[C@H](C(=O)O)[C@@H](O)[C@H](O)[C@H]2O)CC[C@]2(C)[C@H]3C(=O)C=C4[C@@H]5C[C@@](C)(C(=O)O)CC[C@]5(C)CC[C@@]4(C)[C@]3(C)CC[C@@H]12", "note": "[Compound 1, Glycyrrhizic acid, reference compound]", "values": [{"measurement": "NS2B-NS3 Protease (IC50, μM)", "setting": "DENV-2 NS2B-NS3 protease; [3]", "result": "no inhibitory effect"}]}
{"smiles": "CN(C)[C@@H]1C(O)=C(C(N)=O)C(=O)[C@@]2(O)C(O)=C3C(=O)c4c(O)cccc4[C@@](C)(O)[C@H]3C[C@@H]12", "note": "[T, tetracycline, reference compound]", "values": [{"measurement": "inhibition at 10 µM", "setting": "DENV-2 NS2B-NS3 protease", "result": "> 20", "unit": "%"}]}
{"smiles": "COC(=O)CCC(NC(=O)C1OC(OC2C(OC3CCC4(C)C(CCC5(C)C4C(=O)C=C4C6CC(C)(C(=O)O)CCC6(C)CCC45C)C3(C)C)OC(C(=O)NC(CCC(=O)OC)C(=O)OC)C(O)C2O)C(O)C(O)C1O)C(=O)OC", "note": "(stereo not shown) [Compound 11]", "values": [{"measurement": "EC50", "setting": "DENV-2", "result": 5, "unit": "nM"}, {"measurement": "EC50", "setting": "DENV-2 strain 16681 [1]", "result": 42, "unit": "nM"}, {"measurement": "EC50", "setting": "DENV-2 strain 16681 [2]", "result": "0.034 ± 0.001", "unit": "µM"}, {"measurement": "CC50 at 96 h", "setting": "MTT cytotoxicity assay", "result": "> 100000", "unit": "nM"}, {"measurement": "inhibition at 10 µM", "setting": "DENV-2 NS2B-NS3 protease", "result": "> 20", "unit": "%"}]}
{"smiles": "CCOC(=O)C(Cc1ccccc1)NC(=O)C1OC(OC2C(OC3CCC4(C)C(CCC5(C)C4C(=O)C=C4C6CC(C)(C(=O)NC(Cc7ccccc7)C(=O)OCC)CCC6(C)CCC45C)C3(C)C)OC(C(=O)NC(Cc3ccccc3)C(=O)OCC)C(O)C2O)C(O)C(O)C1O", "note": "(stereo not shown) [Compound 8]", "values": [{"measurement": "inhibition at 10 µM", "setting": "DENV-2 NS2B-NS3 protease", "result": "> 20", "unit": "%"}]}
{"smiles": "CCOC(=O)CCNC(=O)C1OC(OC2C(OC3CCC4(C)C(CCC5(C)C4C(=O)C=C4C6CC(C)(C(=O)O)CCC6(C)CCC45C)C3(C)C)OC(C(=O)NCCC(=O)OCC)C(O)C2O)C(O)C(O)C1O", "note": "(stereo not shown) [Compound 17]", "values": [{"measurement": "EC50", "setting": "DENV-2", "result": 2990, "unit": "nM"}, {"measurement": "EC50", "setting": "DENV-2 strain 16681 [1]", "result": 790, "unit": "nM"}, {"measurement": "Selectivity Index (CC50/EC50)", "setting": "DENV-2 strain 16681 [2]", "result": ">23"}, {"measurement": "EC50", "setting": "DENV-2 strain 16681 [2]", "result": "4.34 ± 0.008", "unit": "µM"}, {"measurement": "CC50 at 96 h", "setting": "MTT cytotoxicity assay", "result": "> 100000", "unit": "nM"}, {"measurement": "inhibition at 10 µM", "setting": "DENV-2 NS2B-NS3 protease", "result": "> 20", "unit": "%"}]}
